# Data reported in US10563171B2, “Method for inducing differentiation of pluripotent stem cells into germ cells” (Kyoto University, priority 2015, dated 2020).
# Columns and labels:
# iMeLCs = experiment: Induction of BTAG positive cells (hPGCLCs) from iMeLCs in floating aggregates; assay type: cell-based, human; details: for role in induction of BTAG positive cells from iMeLCs: combination of BMP4, LIF, SCF and EGF changed, FIG. 11A-D
# Procedure: (§1) Initial mesoderm-like cells (iMeLCs) were induced by seeding hiPSCs maintained in StemFit™ in a 12 well plate coated with human plasma fibronectin (Millipore, FC010) at 1.0-2.0×10^5 cells per well in GK15 medium [GMEM containing 15% KSR, 0.1 mM NEAA, 2 mM L-glutamine, 1 mM sodium pyruvate and 0.1 mM 2-mercaptoethanol (Life Technologies)] containing 50 ng/ml activin A, 3 μM CHIR99021 and 10 μM ROCK inhibitor (Y-27632; Wako Pure Chemical Industries). The hiPSCs were induced by seeding in a low-cell-binding V-bottom 96 wellplate (Thermo, 81100574) at 3.0×10^3 cells per well in GK15 added with 1000 U/ml LlF (Millipore, #LIF1005), 200 ng/ml BMP 4,100 ng/ml SCF (R&D Systems, 455-MC), 50 ng/ml EGF (R&D Systems, 236-EG), and 10 μM ROCK inhibitor. For investigation of conditions and induction of iMeLCs or hPGCLC, PD173074 (StemGent, #04-0008) or LDN193189 (StemGent, #04-0074) was respectively added. Other than the above, WNT3A (R&D Systems, 5036-WN) was used instead of CHIR99021, and BMP2 (R&D Systems, 355-BM), BMP7 (R&D Systems, 354-BP), or BMP8A (R&D Systems, 1073-BP) was used instead of BMP4.
# (§2) Floating aggregates containing hPGCLCs were separated by treating with 0.05% Trypsin-EDTA/PBS at 37° C. for 10 min. After washing with PBS containing FBS and 0.1% BSA, the cell suspension was filtered by a cell strainer (BD Biosciences) and centrifuged to remove cell aggregates. The collected cells were suspended in FACS buffer (0.1% BSA in PBS) and analyzed by a flow cytometer (ARIA III; BD Biosciences). For the analysis of hPGCLCs or hiPSCs, the separated cells were stained with APC-conjugated anti-human CD326 (EpCAM), BV421-conjugated anti-human/mouse CD49f, PE-conjugated anti-TRA-1-60, or FITC-conjugated anti-SSEA-4. Furthermore, intracellular staining using Alexa fluor 647-conjugated anti-OCT3/4, Alexa Fluor 647-conjugated anti-NANOG or V450-conjugated anti-SOX2 was performed using BD cytofix/Cytoferm Fixation/Permeabilization kit (BD, 554714) and according to the Manufacturer's instructions.
# BTAG 585B1-868 hiPSCs = experiment: Induction of iMeLCs from hiPSCs having induction capacity into BTAG positive cells (FACS of BTAG(+) cells); assay type: cell-based, human
# Procedure: as §1, §2
molecule,measurement,setting,value
SCF: stem cell factor,role in induction of BTAG positive cells from iMeLCs,iMeLCs,maintaining rather than inducing
"c1ccc2c(-c3cnn4cc(-c5ccc(N6CCNCC6)cc5)cnc34)ccnc2c1 [LDN193189, reference compound]",effect of BMP4 on BTAG positive cell induction in presence of ALK2/3 inhibitor,iMeLCs; FIG. 11B,blocked
EGF: epithelial cell growth factor,role in induction of BTAG positive cells from iMeLCs,iMeLCs,maintaining rather than inducing
LIF: leukemia inhibitory factor,role in induction of BTAG positive cells from iMeLCs,iMeLCs,maintaining rather than inducing
bFGF: basic fibroblast growth factor,effect of signaling on iMeLCs induction,"BTAG 585B1-868 hiPSCs; added during induction of iMeLC, FIG. 10D, 10E",acts negatively
"Cc1c[nH]c(-c2cnc(NCCNc3ccc(C#N)cn3)nc2-c2ccc(Cl)cc2Cl)n1 [CHIR, 6-[2-[4-(2,4-Dichlorophenyl)-5-(4-methyl-1H-imidazol-2-yl)pyrimidin-2-ylamino]ethylamino]pyridine-3-carbonitrile, reference compound]",concentration essential for the induction of iMeLCs having induction capacity into BTAG positive cells,"BTAG 585B1-868 hiPSCs; concentration changed during induction of iMeLC from hiPSCs, FIG. 10C",3 to 5 µM
"CCN(CC)CCCCNc1ncc2cc(-c3cc(OC)cc(OC)c3)c(NC(=O)NC(C)(C)C)nc2n1 [PD173074, reference compound]",number of BTAG-positive cells per cell aggregate,"BTAG 585B1-868 hiPSCs; FGFR signaling inhibited during induction of iMeLCs, FIG. 10G, 10H",increased
